Measurements published in patent US20250152545A1, “NOVEL ANTIVIRAL COMPOSITIONS COMPRISING OLEIC ACID” (SUBINTRO LIMITED, priority 2021, published 2025).

Columns and labels:
Type in all cases: cell-based
[1] = test system: SARS-COV-2 infected ALI cultured human nasal epithelium; conditions: apical treatment, apilimod (as mesylate) 2 mg/ml 50 uL; 48 hrs post virus inoculation
[2] = test system: SARS-COV-2 (strain BetaCoV/France/IDF0571/2020); assay: SARS-COV-2 viral load in apical wash of infected ALI cultured human nasal epithelium (RT-PCR); conditions: apical treatment; apilimod (as mesylate) 2 mg/ml 50 uL and/or surfactants 0.15% w/w polysorbate 80 + 0.2% w/w oleic acid; apical wash 48 hrs post inoculation; MOI 0.1
Text: Primary human nasal, trachea, and bronchial epithelial cells can be cultured and differentiated at an air-liquid interface (ALI), forming a pseudostratified mucociliary airway epithelium that is composed of ciliated cells, goblet cells, club cells, and basal cells with an arrangement closely reflective of an in vivo cellular organization. This in vitro model of human airway epithelium (HAE) cultured at an ALI (HAE-ALI) closely recapitulates many important characteristics of respiratory virus-host cell interactions seen in the infected upper and lower airways in vivo and has been used to study many human respiratory viruses, including SARS-COV-2. […]
Virus load was quantified by RT-PCR as reported by Pizzorno et al. (Cell Rep Med. 1 (4): 100059, 2020). […] Viral RNA will be quantified by RT-qPCR (Express One-Step Superscript™ qRT-PCR kit, Invitrogen). SARS-COV-2-specific primer and probes used for viral genome quantification as follows: Target: ORF1b-nsp14 Forward primer (HKU-ORF1b-nsp14F) 5′-[…]-3′ Reverse primer (HKU-ORF1b-nsp14R) 5′-[…]-3′ Probe (HKU-ORF1b-nsp141P) 5′-FAM-[…]-TAMRA-3′. Ct data were determined and relative changes in gene expression were calculated using the […] and shown as the fold reduction of genome copy number (ORF1b-nsp14 gene of SARS-COV-2) relative to the mean of vehicle treated infected control.

[3] = test system: H1N1 (strain A/Switzerland/7717739/2013)

Cc1cccc(/C=N/Nc2cc(N3CCOCC3)nc(OCCc3ccccn3)n2)c1 [apilimod]
inhibition of virus-induced reduction in TEER [1]: 48% | reduction of viral load (genome copy number, ORF1b-nsp14) compared with virus infection control [2]: 0.1 log

CCC(CC)O[C@@H]1C=C(C(=O)O)C[C@H](N)[C@H]1NC(C)=O [oseltamivir carboxylate]
reduction of viral load (assay control) ([3]; 10 µM in a basal chamber, Day 0, 24 hrs post inoculation): 1.7 log | reduction of viral load (genome copy number) compared with virus infection control ([3]; apical treatment, oseltamivir carboxylate 1 μM and/or surfactants 0.15% polysorbate 80 + 0.2% oleic acid, apical wash 24 hrs post inoculation): 1.0 log
